Numbered stars: 1 amine (or outer) side, 2 acyl side, 3 side chain; on linkers, the order of the positions; unused ones are H or OH. Bridge positions count the residues as written; N and C are the ends. Square brackets hold non-standard residues; d marks the D form. Side chains are listed from the residue outwards. Peptide text beside a SMILES is read from it. I, II: the chains in the order shown. * marks the point of attachment. C18 diacid = O=C(O)CCCCCCCCCCCCCCCCC(=O)*; γGlu = O=C(O)[C@H](CCC(=O)[*:2])N[*:1]; Ac4c = NC1(C(=O)O)CCC1; AEEA = NCCOCCOCC(=O)O; Aib = CC(C)(N)C(=O)O
How the values were obtained:
[1] = Thioflavin T (ThT) fibrillation assay for physical stability; type: physicochemical; details: 250 μM in 10 mM HEPES buffer, pH 7.5, 37° C., shaking 960 rpm
Summary of the method: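 Peptide at 250 μM in 10 mM HEPES pH 7.5 with 1 μM ThT, at 37° C with 960 rpm orbital shaking. Fluorescence (ex 444/em 485 nm) read every 20 min after 10 min pre-incubation; sigmoidal fit gives lag time (t0−2τ) and kapp (1/τ). Recovery is RP-HPLC peptide in the centrifuged, 0.22 μm-filtered supernatant as % of initial.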

[2] = Chemical stability assessment by RP-UPLC; type: physicochemical; details: 333 μM, 8 mM phosphate buffer pH 7.3, 37° C. vs 5° C.
Summary of the method: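 Purity loss = (purity after 14 days at 5° C. minus that at 37° C.) relative to the 5° C. value, purity being main-peak area % by RP-UPLC with UV at 215 nm. Samples were 333 μM in 8 mM phosphate, pH 7.3; gradient adjusted for outlying retention times.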

Row | SMILES | THT assay Lag time (Ex. 76) [1] [h] | Purity loss; 14 days at 37° C. [2] [%]
1 | CC(C)C[C@H](NC(=O)[C@H](CC(=O)O)NC(=O)[C@H](CC(C)C)NC(=O)[C@H](Cc1ccc(O)cc1)NC(=O)[C@H](CCCCN)NC(=O)[C@H](CO)NC(=O)[C@H](CC(C)C)NC(=O)[C@H](CC(=O)O)NC(=O)[C@H](CO)NC(=O)[C@@H](NC(=O)[C@H](Cc1ccccc1)NC(=O)[C@@H](NC(=O)CNC(=O)[C@H](CCC(N)=O)NC(=O)C1(NC(=O)[C@@H](N)Cc2c[nH]cn2)CCC1)[C@@H](C)O)[C@@H](C)O)C(=O)N[C@@H](CCCNC(=N)N)C(=O)N[C@@H](CCCNC(=N)N)C(=O)N[C@@H](C)C(=O)N[C@@H](CCCNC(=N)N)C(=O)N[C@@H](CCC(=O)O)C(=O)N[C@@H](Cc1ccccc1)C(=O)N[C@H](C(=O)N[C@@H](CCC(N)=O)C(=O)N[C@@H](Cc1c[nH]c2ccccc12)C(=O)N[C@@H](CC(C)C)C(=O)N[C@@H](CC(C)C)C(=O)N[C@@H](CCCCNC(=O)CC[C@H](NC(=O)CC[C@H](NC(=O)COCCOCCNC(=O)COCCOCCNC(=O)CC[C@H](NC(=O)CC[C@H](NC(=O)CCCCCCCCCCCCCCCCC(=O)O)C(=O)O)C(=O)O)C(=O)O)C(=O)O)C(=O)N[C@H](C(N)=O)[C@@H](C)O)C(C)C [Example 49, N^ε28-[(4S)-4-carboxy-4-[[(4S)-4-carboxy-4-[[2-[2-[2-[[2-[2-[2-[[(4S)-4-carboxy-4-[[(4S)-4-carboxy-4-(17-carboxyheptadecanoylamino)butanoyl]amino]butanoyl]amino]ethoxy]ethoxy]acetyl]amino]ethoxy]ethoxy]acetyl]amino]butanoyl]amino]butanoyl]-[Acb2,Leu10,Leu16,Arg20,Glu21,Leu27,Lys28]-Glucagon amide] (H-H[Ac4c]QGTFTSDLSKYLDLRRAREFVQWLLK([γGlu-γGlu-AEEA-AEEA-γGlu-γGlu-C18 diacid])T-NH2; N-terminus assumed) | 45 | 2
2 | CC(C)C[C@H](NC(=O)[C@H](Cc1c[nH]c2ccccc12)NC(=O)[C@H](CCC(N)=O)NC(=O)[C@@H](NC(=O)[C@H](Cc1ccccc1)NC(=O)[C@H](CCC(=O)O)NC(=O)[C@H](CCCNC(=N)N)NC(=O)[C@H](C)NC(=O)[C@H](CCCNC(=N)N)NC(=O)[C@H](CCCNC(=N)N)NC(=O)C(C)(C)NC(=O)[C@H](CC(=O)O)NC(=O)[C@H](CC(C)C)NC(=O)[C@H](Cc1ccc(O)cc1)NC(=O)[C@H](CCCCN)NC(=O)[C@H](CO)NC(=O)[C@H](CC(C)C)NC(=O)[C@H](CC(=O)O)NC(=O)[C@H](CO)NC(=O)[C@@H](NC(=O)[C@H](Cc1ccccc1)NC(=O)[C@@H](NC(=O)CNC(=O)[C@H](CCC(N)=O)NC(=O)C(C)(C)NC(=O)[C@@H](N)Cc1c[nH]cn1)[C@@H](C)O)[C@@H](C)O)C(C)C)C(=O)N[C@@H](CC(C)C)C(=O)N[C@@H](CCCCNC(=O)CC[C@H](NC(=O)CC[C@H](NC(=O)COCCOCCNC(=O)COCCOCCNC(=O)CC[C@H](NC(=O)CCCCCCCCCCCCCCCCC(=O)O)C(=O)O)C(=O)O)C(=O)O)C(=O)N[C@H](C(N)=O)[C@@H](C)O [Example 51, N^ε28-[(4S)-4-carboxy-4-[[(4S)-4-carboxy-4-[[2-[2-[2-[[2-[2-[2-[[(4S)-4-carboxy-4-(17-carboxyheptadecanoylamino)butanoyl]amino]ethoxy]ethoxy]acetyl]amino]ethoxy]ethoxy]acetyl]amino]butanoyl]amino]butanoyl]-[Aib2,Leu10,Aib16,Arg20,Glu21,Leu27,Lys28]-Glucagon amide] (H-H[Aib]QGTFTSDLSKYLD[Aib]RRAREFVQWLLK([γGlu-γGlu-AEEA-AEEA-γGlu-C18 diacid])T-NH2; N-terminus assumed) | 45 | 3
3 | CC(C)C[C@H](NC(=O)[C@H](Cc1ccc(O)cc1)NC(=O)[C@H](CCCCN)NC(=O)[C@H](CO)NC(=O)[C@H](CC(C)C)NC(=O)[C@H](CC(=O)O)NC(=O)[C@H](CO)NC(=O)[C@@H](NC(=O)[C@H](Cc1ccccc1)NC(=O)[C@@H](NC(=O)CNC(=O)[C@H](CCC(N)=O)NC(=O)C(C)(C)NC(=O)[C@@H](N)Cc1c[nH]cn1)[C@@H](C)O)[C@@H](C)O)C(=O)N[C@@H](CCC(=O)O)C(=O)N[C@@H](CO)C(=O)N[C@@H](CCCCN)C(=O)N[C@@H](CCCNC(=N)N)C(=O)N[C@@H](C)C(=O)N[C@@H](CCCNC(=N)N)C(=O)N[C@@H](CCC(=O)O)C(=O)N[C@@H](Cc1ccccc1)C(=O)N[C@H](C(=O)N[C@@H](CCC(N)=O)C(=O)N[C@@H](Cc1c[nH]c2ccccc12)C(=O)N[C@@H](CC(C)C)C(=O)N[C@@H](CC(C)C)C(=O)N[C@@H](CCCCNC(=O)CC[C@H](NC(=O)CC[C@H](NC(=O)[C@H](CO)NC(=O)[C@H](CCC(=O)O)NC(=O)[C@H](CO)NC(=O)CC[C@H](NC(=O)CC[C@H](NC(=O)CCCCCCCCCCCCCCCCC(=O)O)C(=O)O)C(=O)O)C(=O)O)C(=O)O)C(=O)N[C@H](C(N)=O)[C@@H](C)O)C(C)C [Example 54, N^ε28-[(4S)-4-carboxy-4-[[(4S)-4-carboxy-4-[[(2S)-2-[[(2S)-4-carboxy-2-[[(2S)-2-[[(4S)-4-carboxy-4-[[(4S)-4-carboxy-4-(17-carboxyheptadecanoylamino)butanoyl]amino]butanoyl]amino]-3-hydroxypropanoyl]amino]butanoyl]amino]-3-hydroxypropanoyl]amino]butanoyl]amino]butanoyl]-[Aib2,Leu10,Glu15,Lys17,Arg20,Glu21,Leu27,Lys28]-Glucagon amide] (H-H[Aib]QGTFTSDLSKYLESKRAREFVQWLLK([γGlu-γGlu-Ser-Glu-Ser-γGlu-γGlu-C18 diacid])T-NH2; N-terminus assumed) | 45 | 1

Results, then the molecule that gave them:

Row | THT assay Lag time (Ex. 76) [1] [h] | Purity loss; 14 days at 37° C. [2] [%] | SMILES
4 | 45 | 2 | CC(C)C[C@H](NC(=O)[C@H](CC(=O)O)NC(=O)[C@H](CC(C)C)NC(=O)[C@H](Cc1ccc(O)cc1)NC(=O)[C@H](CCCCN)NC(=O)[C@H](CO)NC(=O)[C@H](CC(C)C)NC(=O)[C@H](CC(=O)O)NC(=O)[C@H](CO)NC(=O)[C@@H](NC(=O)[C@H](Cc1ccccc1)NC(=O)[C@@H](NC(=O)CNC(=O)[C@H](CCC(N)=O)NC(=O)C1(NC(=O)[C@@H](N)Cc2c[nH]cn2)CCC1)[C@@H](C)O)[C@@H](C)O)C(=O)N[C@@H](CCCCN)C(=O)N[C@@H](CCCNC(=N)N)C(=O)N[C@@H](C)C(=O)N[C@@H](CCCNC(=N)N)C(=O)N[C@@H](CCC(=O)O)C(=O)N[C@@H](Cc1ccccc1)C(=O)N[C@H](C(=O)N[C@@H](CCC(N)=O)C(=O)N[C@@H](Cc1c[nH]c2ccccc12)C(=O)N[C@@H](CC(C)C)C(=O)N[C@@H](CC(C)C)C(=O)N[C@@H](CCCCNC(=O)CNC(=O)[C@H](CO)NC(=O)[C@H](CCC(=O)O)NC(=O)CNC(=O)[C@H](CO)NC(=O)CC[C@H](NC(=O)CC[C@H](NC(=O)CCCCCCCCCCCCCCCCC(=O)O)C(=O)O)C(=O)O)C(=O)N[C@H](C(N)=O)[C@@H](C)O)C(C)C [Example 48] (I: H-H[Ac4c]QGTFTSDLSKYLDLKRAREFVQWLLKT-NH2 / II: {C18 diacid-γGlu-γGlu}-SGESG; amide I:28-II:C; N-terminus assumed)
5 | 45 | 2 | CC(C)C[C@H](NC(=O)[C@H](CC(=O)O)NC(=O)[C@H](CC(C)C)NC(=O)[C@H](Cc1ccc(O)cc1)NC(=O)[C@H](CCCCN)NC(=O)[C@H](CO)NC(=O)[C@H](CC(C)C)NC(=O)[C@H](CC(=O)O)NC(=O)[C@H](CO)NC(=O)[C@@H](NC(=O)[C@H](Cc1ccccc1)NC(=O)[C@@H](NC(=O)CNC(=O)[C@H](CCC(N)=O)NC(=O)C(C)(C)NC(=O)[C@@H](N)Cc1c[nH]cn1)[C@@H](C)O)[C@@H](C)O)C(=O)N[C@@H](CCCNC(=N)N)C(=O)N[C@@H](CCCNC(=N)N)C(=O)N[C@@H](C)C(=O)N[C@@H](CCCNC(=N)N)C(=O)N[C@@H](CC(=O)O)C(=O)N[C@@H](Cc1ccccc1)C(=O)N[C@H](C(=O)N[C@@H](CCC(N)=O)C(=O)N[C@@H](Cc1c[nH]c2ccccc12)C(=O)N[C@@H](CC(C)C)C(=O)N[C@@H](CC(C)C)C(=O)N[C@@H](CCCCNC(=O)CNC(=O)[C@H](CO)NC(=O)[C@H](CCC(=O)O)NC(=O)[C@H](CO)NC(=O)CC[C@H](NC(=O)CC[C@H](NC(=O)CCCCCCCCCCCCCCCCC(=O)O)C(=O)O)C(=O)O)C(=O)N[C@H](C(N)=O)[C@@H](C)O)C(C)C [Example 55, N^ε28-[2-[[(2S)-2-[[(2S)-4-carboxy-2-[[(2S)-2-[[(4S)-4-carboxy-4-[[(4S)-4-carboxy-4-(17-carboxyheptadecanoylamino)butanoyl]amino]butanoyl]amino]-3-hydroxypropanoyl]amino]butanoyl]amino]-3-hydroxypropanoyl]amino]acetyl]-[Aib2,Leu10,Leu16,Arg20,Leu27,Lys28]-Glucagon amide] (H-H[Aib]QGTFTSDLSKYLDLRRARDFVQWLLK([Gly-Ser-Glu-Ser-γGlu-γGlu-C18 diacid])T-NH2; N-terminus assumed)

— patent publication US9474790B2, “Stable, protracted GLP-1/glucagon receptor co-agonists for medical use” (Novo Nordisk A/S, priority 2013, dated 2016)
